In the test the target is G-protein coupled receptor 151 (Homo sapiens) (UniProt Q8TDV0). The test can be described thus: GPR151 activator potency, dose response, cell-based (AID 1508610). As to conditions: cell-based GPR151 activation reporter.

The source made the active and inactive calls. The rule behind the calls is not given here. A value given as a limit tells only on which side of the number the result lay.

Sequence of G-protein coupled receptor 151 (Homo sapiens) (Q8TDV0 whole entry, looked up): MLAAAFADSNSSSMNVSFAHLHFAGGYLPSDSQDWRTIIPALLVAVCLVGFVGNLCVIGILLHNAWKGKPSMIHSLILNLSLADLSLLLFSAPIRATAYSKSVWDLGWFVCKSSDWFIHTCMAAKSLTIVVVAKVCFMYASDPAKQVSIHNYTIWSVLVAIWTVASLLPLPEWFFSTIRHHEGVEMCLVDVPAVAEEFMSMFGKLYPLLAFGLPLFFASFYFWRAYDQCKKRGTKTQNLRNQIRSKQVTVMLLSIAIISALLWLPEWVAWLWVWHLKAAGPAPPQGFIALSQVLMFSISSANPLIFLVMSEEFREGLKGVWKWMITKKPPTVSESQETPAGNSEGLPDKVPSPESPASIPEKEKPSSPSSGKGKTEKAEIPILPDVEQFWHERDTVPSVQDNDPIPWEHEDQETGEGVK

For `COc1cc(N)c(Cl)cc1C(=O)OCCOc1ccc(Br)cc1`, the EC50 is > 30.8 µM (inactive).
In the case of `CC[C@@H]1NC(=O)[C@H]2CN(C(=O)c3cccc(Cl)c3)CCN2C1=O`, the EC50 was > 28 µM (inactive).
As for `CC(=O)OC(C(=O)NCc1ccco1)c1ccncc1` (stereo unspecified), the EC50 is > 28 µM (inactive).
Next, `O=[N+]([O-])c1ccc(/C=C/c2ccc(O)cc2)cc1`: > 28.9 µM (inactive).
In the case of `COc1ccc(-c2ccc(C(N)=O)s2)cn1`, the EC50 is > 28.1 µM (inactive).
`Cc1c(C(=O)Nc2cc(Sc3ccc(F)cc3)cc([N+](=O)[O-])c2)sc2ncn(Cc3ccccc3F)c(=O)c12`: the EC50 is > 20.2 µM (inactive).
For the compound `CCN(CC)c1nc(SC)nc(Cl)c1Cc1ccc(OC(C)C)cc1`, the EC50 was > 25.2 µM (inactive).
On to `Cc1ccc(NC(=O)CCNc2c(N3CCCC3)c(=O)c2=O)cc1Cl`, for which the EC50 is > 28 µM (inactive).
Take `COc1cccc(/C=C/c2nc3ccccc3c(=O)[nH]2)c1O`: the EC50 is > 32.3 µM (inactive).
For the compound `Cc1nc(/C=C/c2ccc(Cl)cc2)sc1C(=O)O`, the EC50 was > 32 µM (inactive).
Next, `O=C(O)CN1CCN(Cc2ccc(Cl)cc2)C1=O`: > 28 µM (inactive); `CCC(NS(=O)(=O)c1ccc(Cl)c([N+](=O)[O-])c1)C12CC3CC(CC(C3)C1)C2` (stereo unspecified): > 26.9 µM (inactive); `Nc1cccc(-c2nc3ccc(N)cc3s2)c1`: > 36 µM (inactive).
For `Cc1ccn(CCC(=O)NCC2Cc3cc(-c4cnccn4)cc(Cl)c3O2)n1` (stereo unspecified) the value was > 28 µM (inactive).
Consider `COC(=O)c1ccc(Cl)cc1NC(=O)N(C(C)C)C1CCN(C(C)=O)CC1`, for which the EC50 was > 28 µM (inactive).
For `Cc1sc(NC(=O)c2cc3ccccc3oc2=O)nc1-c1ccc(Br)cc1` the value was > 18.6 µM (inactive); for `Oc1ccc(Nc2ncnc3ccc(I)cc23)cc1`, > 28 µM (inactive).
As to `CCOC(=O)c1cnc2c(OC)cccc2c1NC1CCCCC1`, the EC50 entry was “inactive”.
Next, `C=CCn1c(C)cc(C2=NNC(=NCC)SC2)c1C`: > 28.7 µM (inactive); `COc1ccc(-c2ccc(C(=O)NCCc3ccc(O)cc3)s2)cc1`: > 27.7 µM (inactive); `Cc1cn2c(=O)c(C(=O)NOCc3cccc(C(F)(F)F)c3)cnc2s1`: > 28 µM (inactive).
`O=C(O)c1ccc2nc(-c3ccccc3)[nH]c2c1`: the EC50 is > 26.3 µM (inactive).
For `COc1ccc(S(=O)(=O)N(C)C)c(Cl)c1Cl` the value was > 28 µM (inactive).
Turning to `COc1ccc(C(=O)Nc2cccc(C(=O)N3CCCC3)c2)cc1`, the EC50 was > 28 µM (inactive).
Next, `COc1cc(C2CC(=O)c3c([nH]c(C(=O)OCCSC)c3C)C2)cc(OC)c1OC` (stereo unspecified): 0.0014 µM.
For `Cc1cccc2c(C(=O)NCc3ccccc3)cc(-c3ccccc3)nc12` the value was > 24.6 µM (inactive); for `CNc1nc2c(-c3ccc(Cl)cc3)nnn2c2ccccc12`, > 28 µM (inactive); for `O=C1C2C3C=CC(C3)C2C(=O)N1Nc1c(Cl)cc(Cl)cc1Cl` (stereo unspecified), > 28 µM (inactive).
Turning to `Cn1c(/C=C/c2ccccc2)nc2ccccc21`, the EC50 was > 37 µM (inactive).
For `COCCNCCOc1ccc(C)cc1C` the value was > 28 µM (inactive); for `C/C(=C\c1ccccc1)C(=O)Nc1ccccc1C(=O)O`, > 31.9 µM (inactive).
For the compound `O=C1NC(=O)C(=Cc2cc(Br)ccc2OCc2ccccc2F)C(=O)N1`, the EC50 is > 28 µM (inactive).
For `NC(=O)c1ccc(-c2ccc(N3CCOCC3)nc2)s1` the value was > 25.9 µM (inactive); for `CC(=O)Oc1cccc(N2C(=O)C3C4c5ccccc5C(C)(c5ccccc54)C3C2=O)c1` (stereo unspecified), 1e-05 µM; for `Cc1ccc(-c2nc(-c3ccccn3)no2)cc1`, > 31.3 µM (inactive).
For `CCOC(=O)c1c(NC(=O)CN2CC(C)OC(C)C2)sc(C)c1C` (stereo unspecified) the value was > 31.3 µM (inactive); for `COc1cc(C2NC(=O)NC(C)=C2C(C)=O)cc(Br)c1OCc1ccccc1` (stereo unspecified), > 28 µM (inactive).
`COc1cccc(/C=N/NC(=O)C(C)Nc2ccc(C)cc2)c1O` (stereo unspecified): the EC50 is > 28 µM (inactive).
Consider `Cc1nn(-c2ccccc2)c(Cl)c1/C=N\O`, for which the EC50 is > 28 µM (inactive).
Next, `CCCN1C(=O)C[n+]2ccccc2C1C(=O)Nc1ccccc1C` (stereo unspecified): > 28 µM (inactive); `COc1ccccc1C(=O)Nc1nc2ccccc2s1`: > 26.2 µM (inactive).
Take `Cc1cc2c(cc1C)C(c1cc([N+](=O)[O-])ccc1Cl)CC(=O)N2` (stereo unspecified): the EC50 was > 33.6 µM (inactive).
With `CC1=NCCc2c1[nH]c1cc(O)ccc21`, the EC50 is > 28 µM (inactive).
Next, `COc1ccc(-c2ccc(C(=O)Nc3ccccc3)s2)cn1`: > 28 µM (inactive); `COc1ccc(CCN2C(=O)c3ccc(Oc4ccc(Nc5ncnc6ccccc56)cc4)cc3C2=O)cc1OC`: 2.42 µM; `c1ccc2[nH]c(-c3nc4ccccc4o3)nc2c1`: > 28.6 µM (inactive).
For `O=C(Nc1ncc([N+](=O)[O-])s1)c1ccc(Cl)cc1Cl` the value was > 27.3 µM (inactive); for `CCC[n+]1c(/C=C2\Sc3ccccc3N2CC)ccc2ccccc21`, > 24.5 µM (inactive).
Consider `COc1ccc(NC(=O)C2C3CCC(C3=C(C)C)C2C(=O)O)cc1` (stereo unspecified), for which the EC50 is > 28 µM (inactive).
`COc1ccc(-c2ccc(C(N)=O)s2)cc1`: the EC50 was > 28.1 µM (inactive).
Next, `Cc1ccc(C(=O)Nc2ccc([N+](=O)[O-])cc2)c(Cl)c1`: > 28 µM (inactive).
Consider `Cn1c(COc2ccc(Cl)cc2)nnc1SCC(=O)NCC(F)(F)F`, for which the EC50 was > 28.4 µM (inactive).
As for `CCOC(=O)c1ccccc1NC(=O)CN(c1ccc(Cl)c(Cl)c1)S(C)(=O)=O`, the EC50 is > 28 µM (inactive).
On to `COc1ncc(-c2cncc(-c3cccc(O)c3)n2)c(OC)n1`, for which the EC50 was > 28 µM (inactive).
For `O=C(Nc1ccc(NC(=O)c2cccc3c(Br)cccc23)cc1)c1ccco1` the value was > 24.4 µM (inactive); for `O=C(Nc1ccc(-c2cccc(F)c2)cc1)C1CCCN(C(=O)C2CCOCC2)C1` (stereo unspecified), > 28 µM (inactive); for `COC(=O)c1cc2c(N3CCC(Cc4ccccc4)CC3)ncnc2s1`, > 27.4 µM (inactive).
For `CCc1ccccc1N(CC(=O)Nc1ccccc1Cl)S(C)(=O)=O` the value was 0.00153 µM.
For `O=C(CCCC(=O)N/N=C/c1cccc([N+](=O)[O-])c1)N/N=C/c1cccc([N+](=O)[O-])c1` the value was > 28 µM (inactive); for `CCN=C1SC(CC(=O)Nc2sc(C)c(C)c2C(=O)OC)C(=O)N1CC` (stereo unspecified), > 28.2 µM (inactive); for `CC(C)CC(=O)NCC1CCC2(CCN(Cc3ccccc3F)CC2)O1` (stereo unspecified), > 28 µM (inactive).
For the compound `O=C(O)c1ccc(COc2ccc3c(c2)CCC3)o1`, the EC50 is > 28 µM (inactive).
For the compound `O=C(Nc1nc2c(s1)CCCC2)C1=COCCO1`, the EC50 is > 27.4 µM (inactive).
For `COc1ccc(C2C3C(C)=NN=C3CC(C)(O)C2C(C)=O)cc1` (stereo unspecified) the value was “inactive”; for `COc1ccc(-c2cnn(-c3ccc(C(=O)O)cc3)c2)cc1`, > 28 µM (inactive); for `COc1ccc(N(CC(=O)Nc2ccccc2-c2ccccc2)S(C)(=O)=O)cc1`, > 28 µM (inactive).
On to `CN1CCN(c2ccc(/C=C(\C#N)C(N)=O)cc2[N+](=O)[O-])CC1`, for which the EC50 was > 28 µM (inactive).
Consider `O=C(NCSc1ccncn1)c1ccccc1`, for which the EC50 was > 41.2 µM (inactive).
For `O=C(Nc1cc(Cl)ccc1Cl)c1ccccc1O` the value was > 34 µM (inactive).
On to `CCOc1cc(/C=c2/sc3n(c2=O)CCN=3)ccc1O`, for which the EC50 was > 40 µM (inactive).
Next, `CSc1nc2ccc(NC(=O)Cn3cnc4ccccc4c3=O)cc2s1`: > 29.3 µM (inactive); `Cc1cc2nc3c(=O)n(C4CCCCCC4)c(=O)[nH]c3nc2cc1N`: > 28 µM (inactive).
For `N#Cc1sc(NC(=O)c2ccc(F)c(F)c2)nc1Cl` the value was > 28 µM (inactive).
With `CN1CCN(c2cc(-c3cn[nH]c3)ccc2NC(=O)Cc2cccc(Cl)c2)CC1`, the EC50 is 1.25 µM.
Next, `O=C(NCc1ccc(F)cc1)C(=O)Nc1cccc(Cl)c1`: > 28 µM (inactive); `CCCCNc1c(N2CCCC(C(=O)OCC)C2)c(=O)c1=O` (stereo unspecified): > 28 µM (inactive).
For `Clc1ccc(-c2nc(-c3ccccn3)no2)c(Cl)c1` the value was > 29.7 µM (inactive); for `O=C1NC(=S)S/C1=C\c1ccc(C(=O)O)cc1`, > 29.6 µM (inactive); for `O=c1oc2ccccc2cc1-c1cn2ccccc2n1`, > 34.7 µM (inactive).
For `Cc1ccc(CNC(=O)c2c(C)cc(=O)oc2C)cc1` the value was > 28 µM (inactive); for `CCOC(=O)c1cnc2c(OC)cccc2c1NC1CCCCCC1`, “inactive”; for `COc1ccc(NS(=O)(=O)c2cccc3c(S(=O)(=O)Nc4ccc(OC)cc4OC)cccc23)c(OC)c1`, > 20.8 µM (inactive).
Regarding `CCOc1ccc(-c2n[nH]c(=S)n2-c2ccccc2)cc1`, the EC50 entry was “inactive”.
For `C[C@H](O)[C@H]1NC(=O)[C@@H]2C[C@H](NCc3cccc(F)c3)CN2C1=O` the value was > 28 µM (inactive); for `Cc1nc2nc(SCC(=O)N3CCOCC3)nn2c(C)c1Cc1ccccc1`, > 28 µM (inactive); for `Cc1ccc(C(=O)Nc2cccc(C(=O)O)c2)cc1`, > 32.6 µM (inactive).
Next, `O=C(COC(=O)CCS(=O)(=O)c1ccccc1Cl)NC(=O)NCc1ccco1`: > 28.7 µM (inactive); `COc1ccccc1N1CCN(C(=O)c2cnc(N3CCN(c4ncccn4)CC3)c3ccccc23)CC1`: > 20.1 µM (inactive).
Regarding `CC(C)Cn1c(-c2nn(C)cc2Cl)n[nH]c1=S`, the EC50 was > 28 µM (inactive).
For `COc1cccn2c(C(=O)Nc3ccc(Cl)cc3)c(C(F)(F)F)nc12` the value was > 28 µM (inactive); for `O=c1c2ccccc2cnn1-c1nc2ccccc2[nH]1`, > 29.9 µM (inactive).

For the origin of these results see PubChem BioAssay AID1508610 (The Scripps Research Institute Molecular Screening Center, 2020).
